System: Snrpn promoter region and adjacent Dazl locus
Assay: Bisulfite sequencing of the Dazl-Snrpn region in mESCs
Type: cell-based, mouse
Details: with target gRNAs
Method: FIGS. 1A-IF depict activation of the Daz1-Snrpn-GFP reporter by dCas9-Tet1. […] FIG. 1B is a schematic representation of targeting the Snrpn promoter region by dCas9-Tet1 with specific gRNAs to erase methylation and activate GFP expression. […] Percentage of GFP positive cells were calculated by flow cytometric analysis of these cells 3-day post infection, and shown as the mean percentages of GFP positive cells±SD of two biological replicates. Note that the percentages of GFP-positive cells are expressed as the fraction of infected Cherry-positive cells. […] Scale bar: 250 um. Right: provides percentages of GFP positive colonies were quantified, and shown as the mean percentages of GFP positive cells±SD of two biological replicates. […] FIG. 1F provides methylation levels of individual CpGs in the Snrpn promoter region and the adjacent Dazl locus. Shown is the mean percentage±SD of two biological replicates.
Demethylation of specific CpGs: To test whether defined sequences could be demethylated, we introduced the dCas9-Tet1 construct in combination with gRNAs to target the Snrpn-GFP reporter inserted into the Dazl promoter (FIG. 1B and FIG. 9A). […] To assess the activation efficiency by dCas9-Tet1 with target gRNAs, we analyzed the cells infected by both viruses using FACS. […] We further analyzed the GFP-positive and -negative populations within infected Cherry-positive cells. […]

dCas9-Tet1: catalytically inactive Cas9 (dCas9) fused through NLS to the Tet1 catalytic domain, SEQ ID NO: 159; lentivirally expressed with gRNAs
methylation status of Snrpn promoter region and adjacent Dazl locus: robust demethylation only in the Snrpn promoter region but not the adjacent Dad locus
